US4485110A, “β-Lactam compounds, and use” (priority 1980, dated 1984)
Values joined by “and” are separate entries in the source; they are usually repeats but may differ in a detail not shown here. Equal values may be shown once. Read-outs that look alike come from different tables or passages of the source.

How the values were obtained:
Type in all cases: cell-based
[1] = tested on: S. aureus Russell; assay: β-Lactamase inhibitory activity: antibiotic MIC alone or in combination; conditions: for MIC: Staphylococcus aureus
Source text: (§1) These tables show the MIC values of amoxycillin, cephaloridine, ticarcillin and apalcillin against a number of β-lactamase producing organisms.

[2] = tested on: P. morganii 1580; assay: as above
Source text: as §1

[3] = tested on: E. coli 0111; assay: as above
Source text: as §1

[4] = tested on: P. mirabilis 889; assay: as above
Source text: as §1

[5] = tested on: K. aerogenes I112; assay: as above; conditions: for MIC: Klebsiella aerogenes
Source text: as §1

[6] = tested on: P. vulgaris WO91; assay: as above; conditions: for MIC: Proteus vulgaris
Source text: as §1

[7] = tested on: P. rettgeri WM16; assay: as above; conditions: for MIC: Providencia rettgeri
Source text: as §1

[8] = tested on: E. coli JT39R+; assay: as above; conditions: for MIC: Escherichia coli
Source text: as §1

[9] = tested on: P. mirabilis 977; assay: as above
Source text: as §1

[10] = tested on: C. freundii B10R+; assay: as above; conditions: Citrobacter freundii
Source text: as §1

[11] = tested on: E. coli JT20R+; assay: as above; conditions: Escherichia coli
Source text: as §1

[12] = tested on: E. coli JT410 C+; assay: as above; conditions: for MIC: Escherichia coli
Source text: as §1

[13] = tested on: C. freundii E8; assay: as above; conditions: for MIC: Citrobacter freundii
Source text: as §1

[14] = tested on: K. aerogenes Ba95R+; assay: as above; conditions: Klebsiella aerogenes
Source text: as §1

[15] = tested on: P. aeruginosa Dalgleish; assay: as above; conditions: Pseudomonas aeruginosa
Source text: as §1

[16] = tested on: P. aeruginosa A; assay: as above; conditions: Pseudomonas aeruginosa
Source text: as §1

[17] = tested on: E. cloacae N1; assay: as above; conditions: Enterobacter cloacae
[18] = tested on: E. cloacae T 153; assay: as above; conditions: Enterobacter cloacae, T153; amoxycillin alone
[19] = tested on: S. aureus MB9; assay: as above
Source text: as §1

[20] = tested on: K. aerogenes A; assay: as above; conditions: Klebsiella aerogenes, apalcillin alone; read-out: Apalcillin MIC
Source text: as §1

[21] = tested on: S. marcescens US20; assay: as above; conditions: Serratia marcescens, US20, apalcillin alone; read-out: Apalcillin MIC
Source text: as §1

[22] = tested on: β-lactamase producing organisms; assay: β-Lactamase inhibitory activity: synergistic properties; conditions: addition of the compound, Tables 2-5
Source text: as §1

[23] = tested on: S. faecalis I; assay: Antibacterial activity, broth MIC; conditions: Enterococcus faecalis; compound alone, broth; read-out: Broth MIC
Source text: (§2) The antibacterial activity of a number of compounds described in the foregoing Examples against a number of organisms is shown in Tables 1 and 10.

[24] = tested on: S. aureus Russell; assay: Antibacterial activity, broth MIC; conditions: Staphylococcus aureus, compound alone
Source text: as §2

[25] = tested on: S. sonnei MB 11967; assay: Antibacterial activity, broth MIC; conditions: Shigella sonnei, MB11967, compound alone
Source text: as §2

[26] = tested on: S. aureus Oxford; assay: Antibacterial activity, broth MIC; conditions: Staphylococcus aureus, compound alone
Source text: as §2

[27] = tested on: E. coli 0111; assay: Antibacterial activity, broth MIC; conditions: Escherichia coli, compound alone
Source text: as §2

[28] = tested on: P. morganii I 580; assay: Antibacterial activity, broth MIC; conditions: Morganella morganii, I580, compound alone
Source text: as §2

[29] = tested on: P. vulgaris WO 91; assay: Antibacterial activity, broth MIC; conditions: Proteus vulgaris, WO91, compound alone
Source text: as §2

[30] = tested on: C. freundii E 8; assay: Antibacterial activity, broth MIC; conditions: Citrobacter freundii, E8; compound alone, broth; read-out: Broth MIC
Source text: as §2

[31] = tested on: K. aerogenes A; assay: Antibacterial activity, broth MIC; conditions: Klebsiella aerogenes; compound alone, broth; read-out: Broth MIC
Source text: as §2

[32] = tested on: P. mirabilis 977; assay: Antibacterial activity, broth MIC; conditions: Proteus mirabilis, compound alone
Source text: as §2

[33] = tested on: S. typhimurium CT 10; assay: Antibacterial activity, broth MIC; conditions: Salmonella enterica, compound alone
Source text: as §2

[34] = tested on: E. cloacae N 1; assay: Antibacterial activity, broth MIC; conditions: Enterobacter cloacae, N1, compound alone
Source text: as §2

[35] = tested on: E. coli JT 39 R^+; assay: Antibacterial activity, broth MIC; conditions: Escherichia coli; compound alone, broth; read-out: Broth MIC
Source text: as §2

[36] = tested on: S. pneumoniae CN 33; assay: Antibacterial activity, broth MIC; conditions: Streptococcus pneumoniae, CN33, compound alone
Source text: as §2

[37] = tested on: S. pyogenes CN 10; assay: Antibacterial activity, broth MIC; conditions: Streptococcus pyogenes, CN10, compound alone
Source text: as §2

[38] = tested on: S. aureus 1517; assay: Antibacterial activity, broth MIC; conditions: Staphylococcus aureus, compound alone
Source text: as §2

[39] = tested on: S. marcescens US 20; assay: Antibacterial activity, broth MIC; conditions: Serratia marcescens, US20; compound alone, broth; read-out: Broth MIC
Source text: as §2

[40] = tested on: P. aeruginosa A; assay: Antibacterial activity, broth MIC; conditions: Pseudomonas aeruginosa, compound alone
Source text: as §2

[41] = tested on: P. rettgeri WM 16; assay: Antibacterial activity, broth MIC; conditions: Providencia rettgeri, WM16, compound alone
Source text: as §2

[42] = amoxycillin alone, read-out: Amoxycillin MIC
[43] = apalcillin alone, read-out: Apalcillin MIC

CC1(C)S[C@@H]2[C@H](NC(=O)[C@H](N)c3ccc(O)cc3)C(=O)N2[C@H]1C(=O)O [Amoxycillin]
MIC [1, 42]: 100 µg/mL
MIC ([2]; Morganella morganii, 1580, amoxycillin alone, read-out: Amoxycillin MIC): 1000 µg/mL
Amoxycillin MIC ([2]; amoxycillin alone): > 1000 µg/mL
MIC ([3]; Escherichia coli, 0111, amoxycillin alone, read-out: Amoxycillin MIC): 10 µg/mL
Amoxycillin MIC ([3]; amoxycillin alone): 5 µg/mL and 5.0 µg/mL
MIC ([4]; Proteus mirabilis, 889, amoxycillin alone, read-out: Amoxycillin MIC): > 1000 µg/mL
MIC ([5]; I112, read-out: Amoxycillin MIC, amoxycillin alone): 500 µg/mL
Amoxycillin MIC ([5]; amoxycillin alone): 250 µg/mL
MIC ([6]; WO91, amoxycillin alone, read-out: Amoxycillin MIC): > 1000 µg/mL
Amoxycillin MIC ([6]; amoxycillin alone): 1000 µg/mL
MIC ([7]; WM16, amoxycillin alone, read-out: Amoxycillin MIC): 1000 µg/mL
Amoxycillin MIC ([7]; amoxycillin alone): 500 µg/mL
MIC ([8]; read-out: Amoxycillin MIC, amoxycillin alone): > 1000 µg/mL
Amoxycillin MIC ([8]; amoxycillin alone): 1000 µg/mL
MIC ([9]; Proteus mirabilis, 977, amoxycillin alone, read-out: Amoxycillin MIC): 2.5 µg/mL
MIC ([10]; read-out: Amoxycillin MIC): > 1000 µg/mL
MIC ([11]; read-out: Amoxycillin MIC): > 1000 µg/mL
MIC [12, 42]: 250 µg/mL
Amoxycillin MIC ([12]; amoxycillin alone): 500 µg/mL
MIC ([13]; E8, amoxycillin alone, read-out: Amoxycillin MIC): 250 µg/mL
Amoxycillin MIC ([13]; amoxycillin alone): 500 µg/mL
MIC ([14]; read-out: Amoxycillin MIC): > 1000 µg/mL
MIC [15, 42]: > 1000 µg/mL
MIC [16, 42]: > 1000 µg/mL
MIC ([17]; N1, amoxycillin alone, read-out: Amoxycillin MIC): 500 µg/mL
MIC [18]: 1000 µg/mL

CC1(C)S[C@@H]2[C@H](NC(=O)[C@H](NC(=O)c3cnc4cccnc4c3O)c3ccccc3)C(=O)N2[C@H]1C(=O)O [Apalcillin]
MIC [1, 43]: 250 µg/mL
MIC ([2]; Morganella morganii, 1580, apalcillin alone, read-out: Apalcillin MIC): 1000 µg/mL
MIC ([3]; Escherichia coli, 0111, apalcillin alone, read-out: Apalcillin MIC): 2.5 µg/mL
MIC ([4]; Proteus mirabilis, 889, apalcillin alone, read-out: Apalcillin MIC): > 1000 µg/mL
MIC ([19]; Staphylococcus aureus, MB9, apalcillin alone, read-out: Apalcillin MIC): 50 µg/mL
MIC ([5]; I112, read-out: Apalcillin MIC, apalcillin alone): 25 µg/mL
MIC [20]: 10 µg/mL
MIC ([6]; WO91, apalcillin alone, read-out: Apalcillin MIC): 10 µg/mL
MIC ([7]; WM16, apalcillin alone, read-out: Apalcillin MIC): 10 µg/mL
MIC ([8]; read-out: Apalcillin MIC, apalcillin alone): 1000 µg/mL
MIC ([9]; Proteus mirabilis, 977, apalcillin alone, read-out: Apalcillin MIC): 2.5 µg/mL
MIC ([10]; read-out: Apalcillin MIC): > 1000 µg/mL
MIC ([11]; read-out: Apalcillin MIC): > 1000 µg/mL
MIC [12, 43]: 25 µg/mL
MIC ([13]; E8, apalcillin alone, read-out: Apalcillin MIC): 2.5 µg/mL
MIC ([14]; read-out: Apalcillin MIC): > 1000 µg/mL
MIC [15, 43]: > 1000 µg/mL
MIC [21]: 5 µg/mL
MIC [16, 43]: 2.5 µg/mL
MIC ([17]; N1, apalcillin alone, read-out: Apalcillin MIC): 5 µg/mL

C/C=C1/C(=O)N2C(C(=O)O)=C(SCC)SC12 (racemic) [Compound 27, (5RS)-Sodium(Z)-6-Ethylidene-2-ethylthiopenem-3-carboxylate]
Inhibition by compound alone (footnote) ([1]; compound alone, 5.0 μg/ml): inhibitory
Inhibition by compound alone (footnote) ([19]; compound alone, 5.0 μg/ml): inhibitory
Effect on MIC of amoxycillin, cephaloridine, ticarcillin and apalcillin [22]: marked decrease in the MIC
MIC [23]: 250 µg/mL
MIC [24]: 4 µg/mL
MIC [25]: 31 µg/mL
MIC [26]: 2 µg/mL
MIC [27]: 31 µg/mL
MIC [28]: 31 µg/mL
MIC [29]: 31 µg/mL
MIC [30]: 31 µg/mL
MIC [31]: 16 µg/mL
MIC [32]: 31 µg/mL
MIC [33]: 16 µg/mL
MIC [34]: 31 µg/mL
MIC [35]: 16 µg/mL
MIC [36]: 2 µg/mL
MIC [37]: 4 µg/mL
MIC [38]: 16 µg/mL
MIC [39]: 62 µg/mL
MIC [40]: > 500 µg/mL
MIC [41]: 62 µg/mL
